In patent US11884631B1 (priority 2023, dated 2024):

Legend:
[1] = test system: Mycobacterium tuberculosis H37Rv; assay: Anti-tubercular activity (MIC), susceptible H37Rv strain; assay type: cell-based; settings: ATCC 25177 / H37Rv, MIC = minimum drug concentration inhibiting growth with no color change in the well, read-out: MIC (μg/mL) Susceptible (H37Rv)

Row | Structure (SMILES) | melting point [°C] | MIC [1] [µg/mL]
1 | Cc1ccc2c(ccc[n+]2CC(=O)c2ccccc2[N+](=O)[O-])c1.[Br-] [Compound 3a, 6-Methyl-1-(2-(2-nitrophenyl)-2-oxoethyl)quinolin-1-ium bromide] | 218 to 219 | 32
2 | Cc1ccc2c(ccc[n+]2CC(=O)c2ccc(Br)cc2)c1.[Br-] | 221 to 222 | –
3 | Cc1ccc2c(ccc[n+]2CC(=O)c2cc(C(F)(F)F)cc(C(F)(F)F)c2)c1.[Br-] [Compound 3c, 1-(2-(3,5-Bis(trifluoromethyl)phenyl)-2-oxoethyl)-6-methylquinolin-1-ium bromide] | 246 to 247 | 16
4 | Cc1ccc2c(ccc[n+]2CC(=O)c2ccc(F)cc2)c1.[Br-] [Compound 3b, 1-(2-(4-Fluorophenyl)-2-oxoethyl)-6-methylquinolin-1-ium bromide] | 206 to 207 | 8
